A short description of test [1]: Inhibition of histone methyltransferase SU(VAR)3-9.
For test [2], the target named is T1, NAD-dependent protein deacetylase sirtuin-2 (Homo sapiens, UniProt Q8IXJ6).
T1 sequence (Q8IXJ6 whole entry): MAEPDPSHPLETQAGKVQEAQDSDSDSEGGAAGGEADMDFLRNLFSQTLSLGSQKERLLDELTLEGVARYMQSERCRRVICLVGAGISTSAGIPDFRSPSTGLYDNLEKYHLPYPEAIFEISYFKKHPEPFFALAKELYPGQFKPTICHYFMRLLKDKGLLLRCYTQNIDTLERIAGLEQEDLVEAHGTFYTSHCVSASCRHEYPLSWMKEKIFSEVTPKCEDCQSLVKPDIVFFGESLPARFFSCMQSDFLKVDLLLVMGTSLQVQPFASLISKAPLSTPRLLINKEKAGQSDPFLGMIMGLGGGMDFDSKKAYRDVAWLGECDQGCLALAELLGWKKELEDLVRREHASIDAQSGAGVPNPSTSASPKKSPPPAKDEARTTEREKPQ
In words: Activation of human SirT2 protein fluorescence polarization assay. Background: In fluorescence polarisation assays a small probe gives low polarisation when free and higher when bound to something large.

Here are results for 2 compounds from ChEMBL document CHEMBL1221216, “Chemical probes for histone-modifying enzymes” (Nat Chem Biol, 2008).

In general, IC50 refers to the concentration at which inhibition is half-maximal. High values mean weaker potency in that assay, low ones greater potency in that assay. What is called EC50 is the concentration giving half of the maximal effect. Higher therefore signals weaker potency.

`CN1C(=O)[C@@]23C[C@]4([C@]56C[C@@]78SS[C@@](CO)(C(=O)N7[C@H]5Nc5ccccc56)N(C)C8=O)c5ccccc5N[C@@H]4N2C(=O)[C@]1(CO)SS3` [CHAETOCIN]: in test [1], half-maximal inhibition (IC50) was put at 600 nM. `O=C(Nc1ccccc1-c1cn2c(CN3CCNCC3)csc2n1)c1cnc2ccccc2n1` showed an EC50 in test [2] of 160 nM.
